For orientation: pIC50 means −log10 of the IC50, conventionally taken in molar units.

These results are taken from patent US20260200928A1, “THERAPEUTIC COMPOUNDS” (Sanofi, priority 2022, published 2026).

The target in this test is T1, human IL-17A (Homo sapiens, UniProt Q16552).
T1 construct: purchased R&D Systems 7955-IL/CF
T1 sequence (Q16552 24-155): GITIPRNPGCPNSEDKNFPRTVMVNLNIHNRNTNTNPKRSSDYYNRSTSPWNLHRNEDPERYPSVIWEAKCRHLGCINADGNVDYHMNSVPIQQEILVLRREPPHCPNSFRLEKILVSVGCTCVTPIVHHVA
In words: IL-17A AlphaLISA competition assay (block of IL-17A binding to its receptor IL-17RA). Conditions: mean IC50 (n≥2), block of IL-17A binding to IL-17RA. The method in brief:
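Bead-based AlphaLISA competition in PBS with 0.05% Tween-20 and 0.1% BSA: compound first meets human IL-17A (7.5 nM stock) for 30 min, then IL-17RA/Fc (5 nM stock) for 90 min, all at room temperature, before acceptor/donor bead capture. IC50 fitted 4-parameter, DMSO and 4 μM reference inhibitor as controls; at least duplicate.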

The structures appear in SMILES notation. pIC50: −log10 of the molar value.

In turn, `COC[C@H](c1ccnc(NC(=O)[C@@H](NC(=O)Cc2ccc(OC)nc2)C2CCC(F)(F)CC2)c1)N1C[C@@H](C(F)(F)F)NC1=O` [Example 204, (S)-2-(4,4-difluorocyclohexyl)-N-(4-((S)-2-methoxy-1-((S)-2-oxo-4-(trifluoromethyl)imidazolidin-1-yl)ethyl)pyridin-2-yl)-2-(2-(6-methoxypyridin-3-yl)acetamido)acetamide] had a negative logarithm of the IC50 (pIC50) of 6.89.

As to `COC[C@H](c1ccnc(NC(=O)[C@@H](NC(=O)C(C)c2cccc(C#N)c2)C2CCC(F)(F)CC2)c1)N1C[C@@H](C(F)(F)F)NC1=O` (stereo partly drawn) [Example 205, 2-(3-cyanophenyl)-N-((S)-1-(4,4-difluorocyclohexyl)-2-((4-((S)-2-methoxy-1-((S)-2-oxo-4-(trifluoromethyl)imidazolidin-1-yl)ethyl)pyridin-2-yl)amino)-2-oxoethyl) propanamide], the negative logarithm of the IC50 (pIC50) was 6.46.

Regarding `COC[C@H](c1ccnc(NC(=O)[C@@H](NC(=O)Cc2cccc(C#N)c2)C2CCC(F)(F)CC2)c1)N1C[C@@H](C(F)(F)F)NC1=O` [Example 206, (S)-2-(2-(3-cyanophenyl)acetamido)-2-(4,4-difluorocyclohexyl)-N-(4-((S)-2-methoxy-1-((S)-2-oxo-4-(trifluoromethyl)imidazolidin-1-yl)ethyl)pyridin-2-yl)acetamide], the pIC50 is 6.80.

In turn, `CCc1nonc1C(=O)N[C@H](C(=O)Nc1cc([C@@H](CC)N2C[C@@H](C(F)(F)F)NC2=O)ccn1)C1CCC(F)(F)CC1` [Example 209, N-((S)-1-(4,4-difluorocyclohexyl)-2-oxo-2-((4-((R)-1-((S)-2-oxo-4-(trifluoromethyl)imidazolidin-1-yl)propyl)pyridin-2-yl)amino)ethyl)-4-ethyl-1,2,5-oxadiazole-3-carboxamide] gave a pIC50 of 7.64.

Consider `CCc1nocc1C(=O)N[C@H](C(=O)Nc1cc([C@@H](CC)N2C[C@@H](C(F)(F)F)NC2=O)ccn1)C1CCC(F)(F)CC1` [Example 210, N-((S)-1-(4,4-difluorocyclohexyl)-2-oxo-2-((4-((R)-1-((S)-2-oxo-4-(trifluoromethyl)imidazolidin-1-yl)propyl)pyridin-2-yl)amino)ethyl)-3-ethylisoxazole-4-carboxamide], for which the pIC50 is 7.42.

`CC[C@H](c1ccnc(NC(=O)[C@@H](NC(=O)c2nonc2C)C2CCC(F)(F)CC2)c1)N1C[C@@H](C(F)(F)F)NC1=O` [Example 211, N-((S)-1-(4,4-difluorocyclohexyl)-2-oxo-2-((4-((R)-1-((S)-2-oxo-4-(trifluoromethyl)imidazolidin-1-yl)propyl)pyridin-2-yl)amino)ethyl)-4-methyl-1,2,5-oxadiazole-3-carboxamide] showed a pIC50 of 7.48.

Regarding `CC[C@H](c1ccnc(NC(=O)[C@@H](NC(=O)c2nonc2C2CC2)C2CCC(F)(F)CC2)c1)N1C[C@@H](C(F)(F)F)NC1=O` [Example 212, 4-cyclopropyl-N-((S)-1-(4,4-difluorocyclohexyl)-2-oxo-2-((4-((R)-1-((S)-2-oxo-4-(trifluoromethyl)imidazolidin-1-yl)propyl)pyridin-2-yl)amino)ethyl)-1,2,5-oxadiazole-3-carboxamide], the pIC50 was 7.64.

Compound `CC[C@H](c1ccnc(NC(=O)[C@@H](NC(=O)c2ccnn2CC)C2CCC(F)(F)CC2)c1)N1C[C@@H](C(F)(F)F)NC1=O` [Example 213, N-((S)-1-(4,4-difluorocyclohexyl)-2-oxo-2-((4-((R)-1-((S)-2-oxo-4-(trifluoromethyl)imidazolidin-1-yl)propyl)pyridin-2-yl)amino)ethyl)-1-ethyl-1H-pyrazole-5-carboxamide] showed a negative logarithm of the IC50 (pIC50) of 7.55.

Compound `CC[C@H](c1ccnc(NC(=O)[C@@H](NC(=O)c2ccnn2C)C2CCC(F)(F)CC2)c1)N1C[C@@H](C(F)(F)F)NC1=O` [Example 214, N-((S)-1-(4,4-difluorocyclohexyl)-2-oxo-2-((4-((R)-1-((S)-2-oxo-4-(trifluoromethyl)imidazolidin-1-yl)propyl)pyridin-2-yl)amino)ethyl)-1-methyl-1H-pyrazole-5-carboxamide] had a pIC50 of 7.34.

In the case of `CC[C@H](c1ccnc(NC(=O)[C@@H](NC(=O)c2ccnn2C(C)C)C2CCC(F)(F)CC2)c1)N1C[C@@H](C(F)(F)F)NC1=O` [Example 215, N-((S)-1-(4,4-difluorocyclohexyl)-2-oxo-2-((4-((R)-1-((S)-2-oxo-4-(trifluoromethyl)imidazolidin-1-yl)propyl)pyridin-2-yl)amino)ethyl)-1-isopropyl-1H-pyrazole-5-carboxamide], the pIC50 was 7.19.

For `CCc1oncc1C(=O)N[C@H](C(=O)Nc1cc(C[C@H]2C[C@@H](C(F)(F)F)NC2=O)ccn1)C1CCC(F)(F)CC1` [Example 218, N-((S)-1-(4,4-difluorocyclohexyl)-2-oxo-2-((4-(((3S,5S)-2-oxo-5-(trifluoromethyl)pyrrolidin-3-yl)methyl)pyridin-2-yl)amino)ethyl)-5-ethylisoxazole-4-carboxamide], the negative-log IC50 (pIC50) is 6.80.

For the compound `CC(C)c1oncc1C(=O)N[C@H](C(=O)Nc1cc(C[C@H]2C[C@@H](C(F)(F)F)NC2=O)ccn1)C1CCC(F)(F)CC1` [Example 219, N-((S)-1-(4,4-difluorocyclohexyl)-2-oxo-2-((4-(((3S,5S)-2-oxo-5-(trifluoromethyl)pyrrolidin-3-yl)methyl)pyridin-2-yl)amino)ethyl)-5-isopropylisoxazole-4-carboxamide], the pIC50 is 7.10.

`CCc1nonc1C(=O)N[C@H](C(=O)Nc1cc(C[C@H]2C[C@@H](C(F)(F)F)NC2=O)ccn1)C1CCC(F)(F)CC1` [Example 220, N-((S)-1-(4,4-difluorocyclohexyl)-2-oxo-2-((4-(((3S,5S)-2-oxo-5-(trifluoromethyl)pyrrolidin-3-yl)methyl)pyridin-2-yl)amino)ethyl)-4-ethyl-1,2,5-oxadiazole-3-carboxamide] showed a pIC50 of 7.32.

`Cc1nonc1C(=O)N[C@H](C(=O)Nc1cc(C[C@H]2C[C@@H](C(F)(F)F)NC2=O)ccn1)C1CCC(F)(F)CC1` [Example 221, N-((S)-1-(4,4-difluorocyclohexyl)-2-oxo-2-((4-(((3S,5S)-2-oxo-5-(trifluoromethyl)pyrrolidin-3-yl)methyl)pyridin-2-yl)amino)ethyl)-4-methyl-1,2,5-oxadiazole-3-carboxamide] showed a pIC50 of 6.80.

For the compound `O=C(N[C@H](C(=O)Nc1cc(C[C@H]2C[C@@H](C(F)(F)F)NC2=O)ccn1)C1CCC(F)(F)CC1)c1nonc1C1CC1` [Example 222, 4-cyclopropyl-N-((S)-1-(4,4-difluorocyclohexyl)-2-oxo-2-((4-(((3S,5S)-2-oxo-5-(trifluoromethyl)pyrrolidin-3-yl)methyl)pyridin-2-yl)amino)ethyl)-1,2,5-oxadiazole-3-carboxamide], the pIC50 is 7.15.

With `CCn1nccc1C(=O)N[C@H](C(=O)Nc1cc(C[C@H]2C[C@@H](C(F)(F)F)NC2=O)ccn1)C1CCC(F)(F)CC1` [Example 223, N-((S)-1-(4,4-difluorocyclohexyl)-2-oxo-2-((4-(((3S,5S)-2-oxo-5-(trifluoromethyl)pyrrolidin-3-yl)methyl)pyridin-2-yl)amino)ethyl)-1-ethyl-1H-pyrazole-5-carboxamide], the pIC50 was 7.08.

On to `Cn1nccc1C(=O)N[C@H](C(=O)Nc1cc(C[C@H]2C[C@@H](C(F)(F)F)NC2=O)ccn1)C1CCC(F)(F)CC1` [Example 224, N-((S)-1-(4,4-difluorocyclohexyl)-2-oxo-2-((4-(((3S,5S)-2-oxo-5-(trifluoromethyl)pyrrolidin-3-yl)methyl)pyridin-2-yl)amino)ethyl)-1-methyl-1H-pyrazole-5-carboxamide], for which the pIC50 was 6.87.

With `CC(C)n1nccc1C(=O)N[C@H](C(=O)Nc1cc(C[C@H]2C[C@@H](C(F)(F)F)NC2=O)ccn1)C1CCC(F)(F)CC1` [Example 225, N-((S)-1-(4,4-difluorocyclohexyl)-2-oxo-2-((4-(((3S,5S)-2-oxo-5-(trifluoromethyl)pyrrolidin-3-yl)methyl)pyridin-2-yl)amino)ethyl)-1-isopropyl-1H-pyrazole-5-carboxamide], the pIC50 is 6.98.

The compound `COC[C@H](c1ccnc(NC(=O)[C@@H](NC(=O)c2nonc2C)C(C2CC2)C2CC2)c1)N1C[C@@H](C(F)(F)F)NC1=O` [Example 226, N—((S)-1,1-Dicyclopropyl-3-((4-((S)-2-methoxy-1-((S)-2-oxo-4-(trifluoro-methyl)imidazolidin-1-yl)ethyl)pyridin-2-yl)amino)-3-oxopropan-2-yl)-4-methyl-1,2,5-oxadiazole-3-carboxamide] showed a negative-log IC50 (pIC50) of 7.38.

In turn, `COC[C@H](c1ccnc(NC(=O)[C@@H](NC(=O)c2nonc2C2CC2)C(C2CC2)C2CC2)c1)N1C[C@@H](C(F)(F)F)NC1=O` [Example 227, 4-cyclopropyl-N-((S)-1,1-dicyclopropyl-3-((4-((S)-2-methoxy-1-((S)-2-oxo-4-(trifluoromethyl)imidazolidin-1-yl)ethyl)pyridin-2-yl)amino)-3-oxopropan-2-yl)-1,2,5-oxadiazole-3-carboxamide] showed a pIC50 of 7.70.

For the compound `COC[C@H](c1ccnc(NC(=O)[C@@H](NC(=O)c2ccnn2C)C(C2CC2)C2CC2)c1)N1C[C@@H](C(F)(F)F)NC1=O` [Example 228, N-((S)-1,1-dicyclopropyl-3-((4-((S)-2-methoxy-1-((S)-2-oxo-4-(trifluoromethyl)imidazolidin-1-yl)ethyl)pyridin-2-yl)amino)-3-oxopropan-2-yl)-1-methyl-1H-pyrazole-5-carboxamide], the pIC50 was 7.21.
